Assay [1] concerns the target T1, Serotonin reuptake (Rattus norvegicus, UniProt P31652).
T1 construct: synaptosomes are freshly isolated from areas of the rat brain; from tissue; host or cells: rat brain synaptosomes (P2 fraction)
The experiment in a line: Inhibition of 5HT (serotonin) uptake in rat brain synaptosomes. In kind it is biochemical. Conditions: 10 μmol; synaptosomes from rat brain. As for the experimental part: (§1) Biological Data Inhibition of NA and 5HT Uptake
(§2) In order to be able to carry out these in vitro studies, synaptosomes are freshly isolated from areas of the rat brain. In each case a so-called “P2” fraction prepared in accordance with the instructions of Gray and Whittaker (E. G. Gray and V. P. Whittaker (1962) J. Anat. 76, 79-88) is prepared. For the NA uptake, these vesicular particles are isolated from the hypothalamus of male rat brains. A detailed description of the method can be found in the literature (M. Ch. Frink, H.-H. Hennies, W. Englberger, M. Haurand and B. Wilffert (1996) Arzneim.-Forsch./Drug Res. 46 (III), 11, 1029-1036).

In assay [2] the test system is NA reuptake. The assay can be described thus: Inhibition of NA (noradrenaline) uptake in rat hypothalamus synaptosomes. It counts as biochemical. The settings on record: synaptosomes from hypothalamus of male rat brains. The protocol: as §1, §2

Structures are written as SMILES.

T1 sequence (P31652 whole entry): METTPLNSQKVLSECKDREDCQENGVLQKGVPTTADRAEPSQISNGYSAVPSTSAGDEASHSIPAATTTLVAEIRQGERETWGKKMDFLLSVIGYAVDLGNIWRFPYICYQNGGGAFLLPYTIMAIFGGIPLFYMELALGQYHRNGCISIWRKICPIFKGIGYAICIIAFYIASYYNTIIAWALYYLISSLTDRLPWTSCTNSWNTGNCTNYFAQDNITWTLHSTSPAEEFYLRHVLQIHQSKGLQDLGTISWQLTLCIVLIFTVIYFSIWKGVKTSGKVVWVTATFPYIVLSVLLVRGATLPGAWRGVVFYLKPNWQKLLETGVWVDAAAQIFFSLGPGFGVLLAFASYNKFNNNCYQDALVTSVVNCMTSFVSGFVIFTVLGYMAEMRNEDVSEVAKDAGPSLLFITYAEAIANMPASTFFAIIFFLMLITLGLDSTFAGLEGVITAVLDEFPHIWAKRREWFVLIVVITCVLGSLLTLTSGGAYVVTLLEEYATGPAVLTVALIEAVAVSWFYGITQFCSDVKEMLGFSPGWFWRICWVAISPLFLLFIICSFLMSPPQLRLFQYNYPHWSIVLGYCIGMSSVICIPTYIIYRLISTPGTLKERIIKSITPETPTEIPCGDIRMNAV

As to `Cc1ccccc1C(=O)N1CCn2cccc2C1c1ccc(N(C)C)cc1` (stereo not shown) [Example 50, (1-(4-(dimethylamino)phenyl)-3,4-dihydropyrrolo[1,2-a]pyrazin-2(1H)-yl)(o-tolyl)methanone], in assay [1], at 10 µM the inhibition was 41%. The “NA reuptake % inhibition [10 μmol]” value in assay [2] was 14%.
In the case of `CN(C)c1ccc(C2c3cccn3CCN2C(=O)c2ccccc2F)cc1` (stereo not shown) [Example 51, (1-(4-(dimethylamino)phenyl)-3,4-dihydropyrrolo[1,2-a]pyrazin-2(1H)-yl)(2-fluorophenyl)methanone], in assay [1], the inhibition (as a rule, the share of the control response that was lost under treatment) at 10 µM was 43%. Moreover, the “NA reuptake % inhibition [10 μmol]” value in assay [2] was 19%.
In the same order, the values of `CN(C)c1ccc(C2c3cccn3CCN2C(=O)C2CC2)cc1` (stereo not shown) [Example 52, cyclopropyl(1-(4-(dimethylamino)phenyl)-3,4-dihydropyrrolo[1,2-a]pyrazin-2(1H)-yl)methanone] are 27% and 16%.
In the same order, the values of `CN(C)c1ccc(C2c3cccn3CCN2C(=O)c2cccs2)cc1` (stereo not shown) [Example 53, (1-(4-(dimethylamino)phenyl)-3,4-dihydropyrrolo[1,2-a]pyrazin-2(1H)-yl)(thiophen-2-yl)methanone] are 31% and 26%.
For the molecule `CN(C)c1ccc(C2c3cccn3CCN2C(=O)c2ccc(F)cc2)cc1` (stereo not shown) [Example 54, (1-(4-(dimethylamino)phenyl)-3,4-dihydropyrrolo[1,2-a]pyrazin-2(1H)-yl)(4-fluorophenyl)methanone], the inhibition at 10 µM in assay [1] was 47%. For the same molecule, the “NA reuptake % inhibition [10 μmol]” value in assay [2] worked out at 40%.
`O=C(c1ccc2c(c1)OCO2)N1CCn2cccc2C1c1cccs1` (stereo not shown) [Example 56, benzo[1,3]dioxol-5-yl-(1-thiophen-2-yl-3,4-dihydro-1H-pyrrolo[1,2-a]pyrazin-2-yl)-methanone]: in assay [1], the inhibition at 10 µM turned out to be 56%. For the same molecule, the “NA reuptake % inhibition [10 μmol]” value in assay [2] came to 35%.
For `Cc1ccccc1C(=O)N1CCn2cccc2C1c1cccs1` (stereo not shown) [Example 57, (1-(thiophen-2-yl)-3,4-dihydropyrrolo[1,2-a]pyrazin-2(1H)-yl)(o-tolyl)methanone], in that order: 44% and 15%.
As for `O=C(c1cccc(F)c1)N1CCn2cccc2C1c1cccs1` (stereo not shown) [Example 58, (3-fluoro-phenyl)-(1-thiophen-2-yl-3,4-dihydro-1H-pyrrolo[1,2-a]pyrazin-2-yl)-methanone], the inhibition at 10 µM in assay [1] is 60%. In assay [2], the “NA reuptake % inhibition [10 μmol]” value stood at 54%.
In assay [1], `O=C(C1CC1)N1CCn2cccc2C1c1cccs1` (stereo not shown) [Example 59, cyclopropyl(1-(thiophen-2-yl)-3,4-dihydropyrrolo[1,2-a]pyrazin-2(1H)-yl)methanone] displayed an inhibition at 10 µM of 31%. Also, the “NA reuptake % inhibition [10 μmol]” value in assay [2] was 10%.
For `O=C(c1ccc(F)cc1)N1CCn2cccc2C1c1cccs1` (stereo not shown) [Example 60, (4-fluorophenyl)(1-(thiophen-2-yl)-3,4-dihydropyrrolo[1,2-a]pyrazin-2(1H)-yl)methanone], in that order: 37% and 11%.
With `O=C(c1ccc2c(c1)OCO2)N1CCn2cccc2C1c1ccc(Cl)c(Cl)c1` (stereo not shown) [Example 61, benzo[1,3]dioxol-5-yl-[1-(3,4-dichloro-phenyl)-3,4-dihydro-1H-pyrrolo[1,2-a]pyrazin-2-yl]-methanone], the inhibition at 10 µM in assay [1] was 64%. Further, the “NA reuptake % inhibition [10 μmol]” value in assay [2] is 68%.
Molecule `O=C(C1CCCC1)N1CCn2cccc2C1c1ccc(Cl)c(Cl)c1` (stereo not shown) [Example 62, cyclopentyl-[1-(3,4-dichloro-phenyl)-3,4-dihydro-1H-pyrrolo[1,2-a]pyrazin-2-yl]-methanone] registered an inhibition at 10 µM in assay [1] of 51%. In assay [2], the “NA reuptake % inhibition [10 μmol]” value came out at 29%.
As to `O=C(c1ccccc1F)N1CCn2cccc2C1c1ccc(Cl)c(Cl)c1` (stereo not shown) [Example 63, [1-(3,4-dichloro-phenyl)-3,4-dihydro-1H-pyrrolo[1,2-a]pyrazin-2-yl]-(2-fluoro-phenyl)-methanone], the inhibition at 10 µM in assay [1] came to 65%. In addition, in assay [2], the “NA reuptake % inhibition [10 μmol]” value is reported as 71%.
`CC(C)CC(=O)N1CCn2cccc2C1c1ccc(Cl)c(Cl)c1` (stereo not shown) [Example 64, 1-(1-(3,4-dichlorophenyl)-3,4-dihydropyrrolo[1,2-a]pyrazin-2(1H)-yl)-3-methylbutan-1-one] yielded an inhibition at 10 µM in assay [1] of 48%. In assay [2], the “NA reuptake % inhibition [10 μmol]” value was 30%.
For `O=C(c1cccs1)N1CCn2cccc2C1c1ccc(Cl)c(Cl)c1` (stereo not shown) [Example 65, (1-(3,4-Dichlorophenyl)-3,4-dihydropyrrolo[1,2-a]pyrazin-2(1H)-yl)(thiophen-2-yl)methanone], in that order: 43% and 49%.
In turn, `O=C(C1CCC1)N1CCn2cccc2C1c1ccc(Cl)c(Cl)c1` (stereo not shown) [Example 66, cyclobutyl(1-(3,4-dichlorophenyl)-3,4-dihydropyrrolo[1,2-a]pyrazin-2(1H)-yl)methanone] came in with an inhibition at 10 µM in assay [1] of 43%. Further, the “NA reuptake % inhibition [10 μmol]” value in assay [2] came out at 32%.
For the molecule `CC(C)C(=O)N1CCn2cccc2C1c1ccc(Cl)c(Cl)c1` (stereo not shown) [Example 67, 1-(1-(3,4-dichlorophenyl)-3,4-dihydropyrrolo[1,2-a]pyrazin-2(1H)-yl)-2-methylpropan-1-one], the inhibition at 10 µM in assay [1] was 46%. In addition, the “NA reuptake % inhibition [10 μmol]” value in assay [2] amounted to 46%.
As to `O=C(c1ccco1)N1CCn2cccc2C1c1ccc(Cl)c(Cl)c1` (stereo not shown) [Example 68, [1-(3,4-dichloro-phenyl)-3,4-dihydro-1H-pyrrolo[1,2-a]pyrazin-2-yl]-furan-2-yl-methanone], the inhibition at 10 µM in assay [1] was 57%. Further, the “NA reuptake % inhibition [10 μmol]” value in assay [2] was found to be 48%.
For `Cc1ccc(C2c3cccn3CCN2C(=O)c2ccccc2F)cc1` (stereo not shown) [Example 69, (2-fluorophenyl)(1-p-tolyl-3,4-dihydropyrrolo[1,2-a]pyrazin-2(1H)-yl)methanone], in that order: 40% and 12%.
Regarding `Cc1ccsc1C(=O)N1CCn2cccc2C1c1ccccc1` (stereo not shown) [Example 70, (3-methylthiophen-2-yl)(1-phenyl-3,4-dihydropyrrolo[1,2-a]pyrazin-2(1H)-yl)methanone], the inhibition at 10 µM in assay [1] came out at 38%. In addition, the “NA reuptake % inhibition [10 μmol]” value in assay [2] is 11%.
In assay [1], `O=C(/C=C/c1ccc(F)cc1F)N1CCn2cccc2C1c1ccccc1` (stereo not shown) [Example 71, 3-(2,4-difluorophenyl)-1-(1-phenyl-3,4-dihydropyrrolo[1,2-a]pyrazin-2(1H)-yl)prop-2-en-1-one] came in with an inhibition at 10 µM of 27%. Besides, in assay [2], the “NA reuptake % inhibition [10 μmol]” value is recorded as 17%.
With `O=C(/C=C/c1ccccc1)N1CCn2cccc2C1c1cccs1` (stereo not shown) [Example 72, 3-phenyl-1-(1-(thiophen-2-yl)-3,4-dihydropyrrolo[1,2-a]pyrazin-2(1H)-yl)prop-2-en-1-one], in assay [1], the inhibition at 10 µM is 28%. Also, the “NA reuptake % inhibition [10 μmol]” value in assay [2] is recorded as 23%.
In assay [1], `Cc1ccccc1C(=O)N1CCn2cccc2C1c1ccc(F)cc1` (stereo not shown) [Example 75, (1-(4-fluorophenyl)-3,4-dihydropyrrolo[1,2-a]pyrazin-2(1H)-yl)(o-tolyl)methanone] registered an inhibition at 10 µM of 38%. The “NA reuptake % inhibition [10 μmol]” value in assay [2] is 17%.
In the same order, the values of `O=C(CCc1ccccc1)N1CCn2cccc2C1c1cccs1` (stereo not shown) [Example 76, 3-phenyl-1-(1-(thiophen-2-yl)-3,4-dihydropyrrolo[1,2-a]pyrazin-2(1H)-yl)propan-1-one] are 36% and 46%.
In the case of `O=C(CCCCc1ccccc1)N1CCn2cccc2C1c1cccs1` (stereo not shown) [Example 77, 5-phenyl-1-(1-(thiophen-2-yl)-3,4-dihydropyrrolo[1,2-a]pyrazin-2(1H)-yl)pentan-1-one], in assay [1], the inhibition at 10 µM was 25%. For the same molecule, the “NA reuptake % inhibition [10 μmol]” value in assay [2] is 10%.
The molecule `O=C(CCC1CCCCC1)N1CCn2cccc2C1c1cccs1` (stereo not shown) [Example 86, 3-cyclohexyl-1-(1-(thiophen-2-yl)-3,4-dihydropyrrolo[1,2-a]pyrazin-2(1H)-yl)propan-1-one] had an inhibition at 10 µM in assay [1] of 53%. Also, the “NA reuptake % inhibition [10 μmol]” value in assay [2] is given as 19%.

Values taken from patent publication US7879858B2, “Substituted tetrahydropyrrolopyrazine compounds and the use thereof in pharmaceutical compositions” (Gruenenthal GmbH, priority 2006, dated 2011).
